Assay results as given in US4857650A, “Novel renin inhibitory amino acid derivatives” (Kissei Pharmaceutical Co., Ltd., priority 1985, dated 1989).

Tests used:
human renin = target: T1, human renin (Homo sapiens, UniProt P00797); assay: Human renin-sheep renin substrate reaction system in vitro; assay type: biochemical; conditions: pH 7.4, 15 minutes at 37° C., read-out: IC50 (molar concentration)
T1 sequence (P00797 67-406): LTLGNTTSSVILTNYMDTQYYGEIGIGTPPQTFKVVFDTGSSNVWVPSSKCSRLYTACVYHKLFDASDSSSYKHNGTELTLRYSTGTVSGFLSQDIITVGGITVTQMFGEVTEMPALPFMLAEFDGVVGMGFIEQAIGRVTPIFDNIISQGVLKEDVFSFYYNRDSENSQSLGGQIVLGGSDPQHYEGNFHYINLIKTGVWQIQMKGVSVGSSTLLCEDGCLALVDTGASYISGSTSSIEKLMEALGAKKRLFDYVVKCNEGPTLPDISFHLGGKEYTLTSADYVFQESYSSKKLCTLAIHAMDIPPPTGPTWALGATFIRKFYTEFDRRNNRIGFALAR
Protocol: Human resin-sheep resin substrate reaction system in vitro To a mixture containing 200 μl of a 125 mM pyrophosphate buffer (pH 7.4), 25 μl of a 20 mM aqueous solution of […] as an angiotensin converting enzyme inhibitor, 50 μl of semipurified sheep renin substrate ([…]), 50 μl of dimethyl sulfoxide solution of an amino acid derivative of the present invention (or 50 μl of dimethyl sulfoxide as a control) and 150 μl of deionized water was added 25 μl of purified human renin (20-30 ng angiotensin I/ml/hr). The mixture was incubated for 15 minutes on a water bath at 37° C., and the reaction mixture was allowed to stand for 5 minutes on a water bath at 100° C. to stop the reaction. After cooling, 200 μl of the solution were taken up and the amount of angiotensin I produced by the addition of renin was determined by radioimmunoassay. The inhibitory effect was calculated by the following equation. [formula] The molar concentration which produced 50% inhibition (IC50) was calculated from the inhibition value obtained, and the results are shown below.

[1] = target: T2, renin in human high renin plasma (Homo sapiens, UniProt P00797); assay: Renin inhibitory effect in a human high renin plasma; assay type: biochemical; conditions: pH 7.4, 30 minutes at 37° C., read-out: IC50 (molar concentration)
T2 construct: 500 μl of human high renin plasma; from tissue; host or cells: human high renin plasma
T2 sequence (P00797 67-406): T1 sequence (P00797 67-406)
Protocol: Renin inhibitory effect in a human high renin plasma A mixture of 350 μl of a 0.5M phosphate buffer containing 14 mM EDTA 2Na and a 0.3% neomycin sulfate, which was adjusted to the pH of 7.4, 50 μl of a 20 mM an aqueous solution of […] as an angiotensin converting enzyme inhibitor and 100 μl of dimethyl sulfoxide solution containing an amino acid compound of the present invention was added to 500 μl of human high renin plasma. […] was incubated for 30 minutes at 37° C. in a water bath. A 200 μl sample was withdrawn from the incubated mixture, chilled immediately in an ice bath, and the amount of angiotensin I produced was determined by radioimmunoassay, and remaining of the mixture (200 μ[…] 4° C. in an ice bath. The amount of angiotensin I produced in the incubated mixture at 4° C. in an ice bath was determined by radioimmunoassay. As a control, the same procedure as above was carried out by using 100 μl of dimethyl sulfoxide alone in place of the 100 μl of dimethyl sulfoxide solution containing an amino acid compound of the present invention. The inhibitory effect was calculated by the following equation. [formula] The molar concentration which produced 50% inhibition (IC50) was calculated from the inhibition value obtained, and the results are shown below.

Row | SMILES | IC50 (human renin) | IC50 [1]
1 | CC(C)C[C@H](NC(=O)[C@H](Cc1c[nH]cn1)NC(=O)C(CC(=O)N(CCO)CCO)Cc1cccc2ccccc12)C(O)C(=O)OC(C)C (mixture of isomers) [Isopropyl(2RS,3S)-3-{N-{2-(1-naphthylmethyl)-3-[bis(2-hydroxyethyl)carbamoyl]propionyl}-L-histidyl}amino-2-hydroxy-5-methylhexanoate] | 89 nM | 180 nM
2 | COC(=O)CC(Cc1cccc2ccccc12)C(=O)N[C@@H](Cc1c[nH]cn1)C(=O)N[C@@H](CC(C)C)[C@@H](O)CC(=O)NCCC(C)C (stereo partly drawn) [N-[3-(methoxycarbonyl)-2-(1-naphthylmethyl)propionyl]-L-histidyl-statylisoamylamide] | 37 nM | 60 nM
3 | CC(C)C[C@H](NC(=O)[C@H](Cc1c[nH]cn1)NC(=O)C(CC(=O)N[C@@H](C)C(N)=O)Cc1cccc2ccccc12)C(O)C(=O)OC(C)C (stereo partly drawn) [Isopropyl(2RS,3S)-3-{N-{2-(1-naphthylmethyl)-3-[N-(1S-carbamoylethyl)carbamoyl]propionyl}-L-histidyl}amino-2-hydroxy-5-methylhexanoate] | 440 nM | 240 nM
4 | COC(=O)[C@H](C)N(C)C(=O)CC(Cc1cccc2ccccc12)C(=O)N[C@@H](Cc1c[nH]cn1)C(=O)N[C@@H](CC(C)C)C(O)C(=O)OC(C)C (stereo partly drawn) [Isopropyl(2RS,3S)-3-{N-{2-(1-naphthylmethyl)-3-[N-methyl-N-(1S-methoxycarbonylethyl)carbamoyl]propionyl}-L-histidyl}amino-2-hydroxy-5-methylhexanoate] | 33 nM | 16 nM
5 | CC(C)C[C@H](NC(=O)[C@H](Cc1c[nH]cn1)NC(=O)C(CC(=O)N1CCC[C@H]1CO)Cc1cccc2ccccc12)C(O)C(=O)OC(C)C (stereo partly drawn) [Isopropyl(2RS,3S)-3-{N-[2-(1-naphthylmethyl)-3-(2S-hydroxymethylpyrrolidinocarbonyl)propionyl]-L-histidyl}amino-2-hydroxy-5-methylhexanoate] | 23 nM | 140 nM
6 | COC(=O)[C@@H]1CCCN1C(=O)CC(Cc1cccc2ccccc12)C(=O)N[C@@H](Cc1c[nH]cn1)C(=O)N[C@@H](CC(C)C)C(O)C(=O)NCCC(C)C (stereo partly drawn) [(2RS,3S)-3-{N-[2-(1-Naphthylmethyl)-3-(2S-methoxycarbonylpyrrolidinocarbonyl)propionyl]-L-histidyl}amino-2-hydroxy-5-methylhexanoylisoamylamide] | 84 nM | 290 nM
7 | COC(=O)[C@@H]1CCCN1C(=O)CC(Cc1cccc2ccccc12)C(=O)N[C@@H](Cc1c[nH]cn1)C(=O)N[C@@H](CC(C)C)[C@@H](O)CC(=O)NCCC(C)C (stereo partly drawn) [N-[2-(1-Naphthylmethyl)-3-(2S-methoxycarbonylpyrrolidinocarbonyl)propionyl]-L-histidyl-statylisoamylamide] | 120 nM | 220 nM
8 | COC(=O)CN(C)C(=O)CC(Cc1cccc2ccccc12)C(=O)N[C@@H](Cc1c[nH]cn1)C(=O)N[C@@H](CC(C)C)[C@@H](O)CC(=O)NCCC(C)C (stereo partly drawn) [N-[2-(1-Naphthylmethyl)-3-(N-methyl-N-methoxycarbonylmethylcarbamoyl)propionyl]-L-histidyl-statylisoamylamide] | 35 nM | 35 nM
9 | COC(=O)C(O)[C@H](CC(C)C)NC(=O)[C@H](Cc1c[nH]cn1)NC(=O)C(CC(=O)N1CCC[C@H]1C(=O)OC)Cc1cccc2ccccc12 (stereo partly drawn) [Methyl(2RS,3S)-3-{N-[2-(1-naphthylmethyl)-3-(2S-methoxycarbonylpyrrolidinocarbonyl)propionyl]-L-histidyl}amino-2-hydroxy-5-methylhexanoate] | 40 nM | 53 nM
10 | COC(=O)CN(C)C(=O)CC(Cc1cccc2ccccc12)C(=O)N[C@@H](Cc1c[nH]cn1)C(=O)N[C@@H](CC(C)C)C(O)C(=O)NCCC(C)C (mixture of isomers) [(2RS,3S)-3-{N-[2-(1-Naphthylmethyl)-3-(N-methyl-N-methoxycarbonylmethylcarbamoyl)propionyl]-L-histidyl}amino-2-hydroxy-5-methylhexanoylisoamylamide] | 23 nM | 339 nM
11 | COC(=O)[C@H](C)NC(=O)CC(Cc1cccc2ccccc12)C(=O)N[C@@H](Cc1c[nH]cn1)C(=O)N[C@@H](CC(C)C)C(O)C(=O)OC(C)C (stereo partly drawn) [Isopropyl(2RS,3S)-3-{N-{2-(1-naphthylmethyl)-3-[N-(1S-methoxycarbonylethyl)carbamoyl]propionyl}-L-histidyl}amino-2-hydroxy-5-methylhexanoate] | 300 nM | 210 nM
12 | COC(=O)CCN(C)C(=O)CC(Cc1cccc2ccccc12)C(=O)N[C@@H](Cc1c[nH]cn1)C(=O)N[C@@H](CC(C)C)C(O)C(=O)OC(C)C (mixture of isomers) [Isopropyl(2RS,3S)-3-{N-{2-(1-naphthylmethyl)-3-[N-methyl-N-{2-methoxycarbonylethyl)carbamoyl]propionyl}-L-histidyl}amino-2-hydroxy-5-methylhexanoate] | 17 nM | 17 nM
13 | COC(=O)[C@@H]1CC(O)CN1C(=O)CC(Cc1cccc2ccccc12)C(=O)N[C@@H](Cc1c[nH]cn1)C(=O)N[C@@H](CC(C)C)C(O)C(=O)OC(C)C (stereo partly drawn) [Isopropyl(2RS,3S)-3-{N-[2-(1-naphthylmethyl)-3-(4-hydroxy-2S-methoxycarbonylpyrrolidinocarbonyl)-propionyl]-L-histidyl}amino-2-hydroxy-5-methylhexanoate] | 41 nM | 190 nM
14 | COC(=O)CC(Cc1cccc2ccccc12)C(=O)N[C@@H](Cc1c[nH]cn1)C(=O)N[C@@H](CC(C)C)C(O)C(=O)NCCC(C)C (mixture of isomers) [(2RS,3S)-3-[3-Methoxycarbonyl-2-(1-naphthylmethyl)propionyl-L-histidyl]amino-2-hydroxy-5-methylhexanoylisoamylamide] | 220 nM | 690 nM
15 | COC(=O)CN(C)C(=O)CC(Cc1cccc2ccccc12)C(=O)N[C@@H](Cc1c[nH]cn1)C(=O)N[C@@H](CC(C)C)C(O)C(=O)OC (mixture of isomers) [Methyl(2RS,3S)-3-{N-[2-(1-naphthylmethyl)-3-(N-methyl-N-methoxycarbonylmethylcarbamoyl)propionyl]-L-histidyl}amino-2-hydroxy-5-methylhexanoate] | 12 nM | 14 nM
16 | CC(C)C[C@H](NC(=O)[C@H](Cc1c[nH]cn1)NC(=O)C(CC(=O)OC(C)C)Cc1cccc2ccccc12)C(O)C(=O)OC(C)C (mixture of isomers) [Isopropyl (2RS,3S)-3-{N-[3-(isopropoxycarbonyl)-2-(1-naphthylmethyl)propionyl]-L-histidyl}amino-2-hydroxy-5-methylhexanoate] | 64 nM | 160 nM
17 | CNC(=O)CNC(=O)CC(Cc1cccc2ccccc12)C(=O)N[C@@H](Cc1c[nH]cn1)C(=O)N[C@@H](CC(C)C)C(O)C(=O)OC(C)C (mixture of isomers) [Isopropyl(2RS,3S)-3-{N-[2-(1-naphthylmethyl)-3-(N-methylcarbamoylmethylcarbamoyl)propionyl]-L-histidyl}amino-2-hydroxy-5-methylhexanoate] | 620 nM | 290 nM
18 | CC(C)C[C@H](NC(=O)[C@H](Cc1c[nH]cn1)NC(=O)C(CC(N)=O)Cc1cccc2ccccc12)C(O)C(=O)OC(C)C (mixture of isomers) [Isopropyl (2RS,3S)-3-{N-[3-(carbamoyl)-2-(1-naphthylmethyl)propionyl]-L-histidyl}amino-2-hydroxy-5-methylhexanoate] | 520 nM | 490 nM
19 | COC(=O)C[C@@H](C(=O)OC)N(C)C(=O)CC(Cc1cccc2ccccc12)C(=O)N[C@@H](Cc1c[nH]cn1)C(=O)N[C@@H](CC(C)C)C(O)C(=O)OC(C)C (stereo partly drawn) [Isopropyl(2RS,3S)-3-{N-{2-(1-naphthylmethyl)-3-[N-methyl-N-(1S,2-bismethoxycarbonylethyl)carbamoyl]-propionyl}-L-histidyl}amino-2-hydroxy-5-methylhexanoate] | 81 nM | 190 nM
